Experimental data from US5349127A, “Expression of herbicide metabolizing cytochromes P450” (priority 1992, dated 1994).

Tests used:
Experiment in all cases: Percent conversion of non-sulfonylurea herbicides (Example 29)
[1] = system: S. lividans pCAO200SU1-FeS-B#9; type: in vitro ADME, Streptomyces lividans
Experimental: (§1) This experiment was performed as in Example 17 with the following changes. Separate cultures (50 ml) inoculated with S. lividans C37, S. lividans transformed with pCAO200SU1-FeS-B#9, or S. griseolus ATCC11796 were cultured in sporulation broth for 18 hours at 30° C. with shaking. Each culture was then resuspended in 25 ml fresh sporulation broth and 3.0 mg herbicide added. Each culture was reincubated for 18 hours, then an aliquot of the medium was withdrawn and analyzed by HPLC. The percent conversion of herbicide was determined.

[2] = system: S. lividans C37; type: in vitro ADME, Streptomyces lividans; conditions: 3.0 mg herbicide in 25 ml broth; 18 hours
Experimental: as §1

[3] = system: S. griseolus ATCC11796; type: in vitro ADME, Streptomyces griseolus; conditions: 3.0 mg herbicide in 25 ml broth; 18 hours
Experimental: as §1

CC(C)C1(C)N=C(c2nc3ccccc3cc2C(=O)O)NC1=O (stereo not shown) [compound 10035, 2-[4,5-dihydro-4-methyl-4-(1-methylethyl)-5-oxo-1H-imidazol-2-yl]-3-quinolinecarboxylic acid]
Percent Conversion ([1]; 3.0 mg herbicide in 25 ml broth, 18 hours): 96%
metabolism by bacteria containing constitutively expressed P450SU1 ([1]; summary of Table 29): metabolized
Percent Conversion [2]: 22%
Percent Conversion [3]: 21%
